# Test results published in US12522597B2, “Methods and compositions for modulating splicing” (Skyhawk Therapeutics, Inc., priority 2019, dated 2026).
# Columns and labels:
# mHTT protein = mHTT protein assay (2B7-MW1, Mesoscale Discovery); format: cell-based, human; details: GM04724 (CAG 70/20) Huntington's disease patient lymphoblast cells, 48 hours, 2B7-MW1 MSD; read-out: HTT Potency - Protein EC50 mHTT (average)
# Experimental: Compounds are tested on GM04724 (CAG 70/20) Huntington's disease patient lymphoblast cells at doses ranging from 10 μM to 0.6 nM. 4,500 cells/well are seeded in 384 well plates. One plate replica is carried out for parallel viability testing by CellTiter Glo (CTG). Compounds are incubated for 48 hours, mHTT protein levels are assessed by the 2B7-MW1 assay via Mesoscale Discovery (MSD) as previously reported (Macdonald et al., 2014). The antibody pair is comprised of previously characterized monoclonals (2B7 and MW1) interrogating two regions for HTT conformation and biological properties: the N17 domain and the polyQ domain (Baldo et al., 2012; Ko et., 2001). 2B7-MW1 is dependent on subject/animal specific levels of HTT at the time of treatment. 2B7-MW1 is dependent on polyQ expansion (e.g., the higher the expansion the higher the signal) and on mHTT size (e.g., a similar polyQ will give higher signal with smaller HTT size). The viability readout is carried out by CTG according to the manufacturer's instructions.
# [1] = system: MDR1-MDCK cell monolayers; assay: MDCK-MDR1 permeability assay (BBB penetration potential); format: in vitro ADME; details: dog, MDCK-MDR1, 120 min, 5 μM, pH 7.4
# Experimental: (§1) Each determination is performed in duplicate. […] Analytical conditions are outlined below.
# MDR1 = assay: as above; format: in vitro ADME; details: dog; for efflux ratio at 120 min, 5 μM: MDCK-MDR1, pH 7.4, MDCK-MDR1: Efflux; for Papp A→B at 120 min, 5 μM: MDCK-MDR1, pH 7.4, MDCK-MDR1: Papp A-B; for Papp B→A at 120 min, 5 μM: MDCK-MDR1, pH 7.4, MDCK-MDR1: Papp B-A
# Experimental: as §1
smiles,measurement,setting,value
"Oc1cc(-n2ccnc2)ccc1-c1ccc(O[C@@H]2C[C@H]3CC(F)(F)[C@@H](C2)N3)nn1 (single isomer, unassigned) [51-ENT1]",EC50,mHTT protein,501 to 10000 nM
same,MDCK-MDR1: % Recov A-B,[1],90%
same,MDCK-MDR1: % Recov B-A,[1],99%
same,"efflux ratio at 120 min, 5 μM",MDR1,2
same,"Papp A→B at 120 min, 5 μM",MDR1,32.2 ×10⁻⁶ cm/s
same,"Papp B→A at 120 min, 5 μM",MDR1,51.5 ×10⁻⁶ cm/s
"Cc1ncn(-c2ccc(-c3ccc(O[C@@H]4C[C@H]5CCC[C@H](N5)[C@@H]4F)nn3)c(O)c2)n1 (single isomer, unassigned) [70-ENT1]",EC50,mHTT protein,101 to 500 nM
same,MDCK-MDR1: % Recov A-B,[1],93%
same,MDCK-MDR1: % Recov B-A,[1],99%
same,"efflux ratio at 120 min, 5 μM",MDR1,7
same,"Papp A→B at 120 min, 5 μM",MDR1,6.62 ×10⁻⁶ cm/s
same,"Papp B→A at 120 min, 5 μM",MDR1,44.6 ×10⁻⁶ cm/s
"Cn1cc(-c2ccc(-c3ccc(O[C@H]4C[C@@H]5CCC[C@@H](N5)[C@H]4F)nn3)c(O)c2)c(F)n1 (single isomer, unassigned) [109-ENT2]",EC50,mHTT protein,16 to 50 nM
same,MDCK-MDR1: % Recov A-B,[1],51%
same,MDCK-MDR1: % Recov B-A,[1],80%
same,"efflux ratio at 120 min, 5 μM",MDR1,4
same,"Papp A→B at 120 min, 5 μM",MDR1,6.3 ×10⁻⁶ cm/s
same,"Papp B→A at 120 min, 5 μM",MDR1,24.5 ×10⁻⁶ cm/s
"Oc1cc(-n2ccnn2)ccc1-c1ccc(O[C@@H]2C[C@H]3CCC[C@H](N3)[C@@H]2F)nn1 (single isomer, unassigned) [69-ENT1]",EC50,mHTT protein,101 to 500 nM
same,MDCK-MDR1: % Recov A-B,[1],89%
same,MDCK-MDR1: % Recov B-A,[1],93%
same,"efflux ratio at 120 min, 5 μM",MDR1,5
same,"Papp A→B at 120 min, 5 μM",MDR1,9.2 ×10⁻⁶ cm/s
same,"Papp B→A at 120 min, 5 μM",MDR1,47.6 ×10⁻⁶ cm/s
"Cn1cc(-c2ccc(-c3ccc(O[C@@H]4C[C@H]5CCC[C@H](N5)[C@@H]4F)nn3)c(O)c2)c(F)n1 (single isomer, unassigned) [109-ENT1]",EC50,mHTT protein,16 to 50 nM
same,MDCK-MDR1: % Recov A-B,[1],57%
same,MDCK-MDR1: % Recov B-A,[1],76%
same,"efflux ratio at 120 min, 5 μM",MDR1,3
same,"Papp A→B at 120 min, 5 μM",MDR1,5.54 ×10⁻⁶ cm/s
same,"Papp B→A at 120 min, 5 μM",MDR1,18.9 ×10⁻⁶ cm/s
"Cc1cnc(-c2ccc(-c3ccc(O[C@H]4C[C@@H]5CCC[C@@H](N5)[C@H]4F)nn3)c(O)c2)cn1 (single isomer, unassigned) [78-ENT2]",EC50,mHTT protein,101 to 500 nM
same,MDCK-MDR1: % Recov A-B,[1],56%
same,MDCK-MDR1: % Recov B-A,[1],83%
same,"efflux ratio at 120 min, 5 μM",MDR1,4
same,"Papp A→B at 120 min, 5 μM",MDR1,7.09 ×10⁻⁶ cm/s
same,"Papp B→A at 120 min, 5 μM",MDR1,30 ×10⁻⁶ cm/s
"N#Cc1ccc(-c2ccc(O[C@@H]3C[C@H]4CC[C@H](N4)[C@@H]3F)nn2)c(O)c1 (single isomer, unassigned) [111-ENT1]",EC50,mHTT protein,501 to 10000 nM
same,MDCK-MDR1: % Recov A-B,[1],90%
same,MDCK-MDR1: % Recov B-A,[1],92%
same,"efflux ratio at 120 min, 5 μM",MDR1,3
same,"Papp A→B at 120 min, 5 μM",MDR1,15.6 ×10⁻⁶ cm/s
same,"Papp B→A at 120 min, 5 μM",MDR1,44.7 ×10⁻⁶ cm/s
"Cn1cnc(-c2ccc(-c3ccc(O[C@H]4C[C@]5(C)CCC[C@@](C)(N5)[C@H]4F)nn3)c(O)c2)cc1=O (single isomer, unassigned) [139-ENT2]",EC50,mHTT protein,0.01 to 15 nM
same,MDCK-MDR1: % Recov A-B,[1],88%
same,MDCK-MDR1: % Recov B-A,[1],87%
same,"efflux ratio at 120 min, 5 μM",MDR1,15
same,"Papp A→B at 120 min, 5 μM",MDR1,1.97 ×10⁻⁶ cm/s
same,"Papp B→A at 120 min, 5 μM",MDR1,28.7 ×10⁻⁶ cm/s
"Cc1nocc1-c1ccc(-c2ccc(O[C@H]3C[C@@H]4CCC[C@@H](N4)[C@H]3F)nn2)c(O)c1 (single isomer, unassigned) [72-ENT1]",EC50,mHTT protein,101 to 500 nM
same,MDCK-MDR1: % Recov A-B,[1],74%
same,MDCK-MDR1: % Recov B-A,[1],93%
same,MDCK-MDR1: Efflux,[1],9
same,MDCK-MDR1: Papp A-B,[1],"5.74 10^−6, cm/s"
same,MDCK-MDR1: Papp B-A,[1],"51 10^−6, cm/s"
"Cc1cc(-c2ccc(-c3ccc(O[C@H]4C[C@@H]5CCC[C@@H](N5)[C@H]4F)nn3)c(O)c2)co1 (single isomer, unassigned) [98-ENT2]",EC50,mHTT protein,101 to 500 nM
same,MDCK-MDR1: % Recov A-B,[1],9%
same,MDCK-MDR1: % Recov B-A,[1],45%
same,"efflux ratio at 120 min, 5 μM",MDR1,3
same,"Papp A→B at 120 min, 5 μM",MDR1,1.07 ×10⁻⁶ cm/s
same,"Papp B→A at 120 min, 5 μM",MDR1,3.23 ×10⁻⁶ cm/s
"Oc1cc(-c2cnn3ccccc23)ccc1-c1ccc(O[C@@H]2C[C@H]3CCC[C@H](N3)[C@@H]2F)nn1 (single isomer, unassigned) [91-ENT1]",EC50,mHTT protein,101 to 500 nM
same,MDCK-MDR1: % Recov A-B,[1],30%
same,MDCK-MDR1: % Recov B-A,[1],57%
same,"efflux ratio at 120 min, 5 μM",MDR1,3
same,"Papp A→B at 120 min, 5 μM",MDR1,4.52 ×10⁻⁶ cm/s
same,"Papp B→A at 120 min, 5 μM",MDR1,15.5 ×10⁻⁶ cm/s
"Oc1cc(-n2ncc3ccccc32)ccc1-c1ccc(O[C@@H]2C[C@H]3CC[C@H](N3)[C@@H]2F)nn1 (single isomer, unassigned) [114-ENT1]",EC50,mHTT protein,501 to 10000 nM
same,MDCK-MDR1: % Recov A-B,[1],22%
same,MDCK-MDR1: % Recov B-A,[1],47%
same,"efflux ratio at 120 min, 5 μM",MDR1,3
same,"Papp A→B at 120 min, 5 μM",MDR1,4.74 ×10⁻⁶ cm/s
same,"Papp B→A at 120 min, 5 μM",MDR1,13.5 ×10⁻⁶ cm/s
"Oc1cc2cccnc2cc1-c1ccc(O[C@@H]2C[C@H]3CCC[C@H](N3)[C@@H]2F)nn1 (single isomer, unassigned) [105-ENT1]",EC50,mHTT protein,101 to 500 nM
same,MDCK-MDR1: % Recov A-B,[1],92%
same,MDCK-MDR1: % Recov B-A,[1],84%
same,"efflux ratio at 120 min, 5 μM",MDR1,6
same,"Papp A→B at 120 min, 5 μM",MDR1,8.12 ×10⁻⁶ cm/s
same,"Papp B→A at 120 min, 5 μM",MDR1,47.1 ×10⁻⁶ cm/s
"Cc1nc(-c2ccc(-c3ccc(O[C@@H]4C[C@H]5CCC[C@H](N5)[C@@H]4F)nn3)c(O)c2)cs1 (single isomer, unassigned) [71-ENT2]",EC50,mHTT protein,16 to 50 nM
same,MDCK-MDR1: % Recov A-B,[1],50%
same,MDCK-MDR1: % Recov B-A,[1],67%
same,"efflux ratio at 120 min, 5 μM",MDR1,6
same,"Papp A→B at 120 min, 5 μM",MDR1,5.78 ×10⁻⁶ cm/s
same,"Papp B→A at 120 min, 5 μM",MDR1,33.1 ×10⁻⁶ cm/s
"O=c1cc(-c2ccc(-c3ccc(O[C@@H]4C[C@H]5CCC[C@H](N5)[C@@H]4F)nn3)c(O)c2)ccn1CF (single isomer, unassigned) [106-ENT1]",EC50,mHTT protein,101 to 500 nM
same,MDCK-MDR1: % Recov A-B,[1],102%
same,MDCK-MDR1: % Recov B-A,[1],90%
same,"efflux ratio at 120 min, 5 μM",MDR1,48
same,"Papp A→B at 120 min, 5 μM",MDR1,1.07 ×10⁻⁶ cm/s
same,"Papp B→A at 120 min, 5 μM",MDR1,51 ×10⁻⁶ cm/s
"C[C@@]12CCC[C@@](C)(N1)[C@@H](F)[C@@H](Oc1ccc(-c3ccc(C#N)cc3O)nn1)C2 (single isomer, unassigned) [145-ENT2]",EC50,mHTT protein,501 to 10000 nM
same,MDCK-MDR1: % Recov A-B,[1],89%
same,MDCK-MDR1: % Recov B-A,[1],100%
same,"efflux ratio at 120 min, 5 μM",MDR1,8
same,"Papp A→B at 120 min, 5 μM",MDR1,7.75 ×10⁻⁶ cm/s
same,"Papp B→A at 120 min, 5 μM",MDR1,58.9 ×10⁻⁶ cm/s
"Oc1cc(-c2ccc3cncn3c2)ccc1-c1ccc(O[C@H]2C[C@@H]3CCC[C@@H](N3)[C@H]2F)nn1 (single isomer, unassigned) [85-ENT2]",EC50,mHTT protein,101 to 500 nM
same,MDCK-MDR1: % Recov A-B,[1],33%
same,MDCK-MDR1: % Recov B-A,[1],61%
same,"efflux ratio at 120 min, 5 μM",MDR1,7
same,"Papp A→B at 120 min, 5 μM",MDR1,2.26 ×10⁻⁶ cm/s
same,"Papp B→A at 120 min, 5 μM",MDR1,15.3 ×10⁻⁶ cm/s
"Oc1cc2cnccc2cc1-c1ccc(O[C@H]2C[C@@H]3CCC[C@@H](N3)[C@H]2F)nn1 (single isomer, unassigned) [80-ENT2]",EC50,mHTT protein,501 to 10000 nM
same,MDCK-MDR1: % Recov A-B,[1],72%
same,MDCK-MDR1: % Recov B-A,[1],84%
same,"efflux ratio at 120 min, 5 μM",MDR1,3
same,"Papp A→B at 120 min, 5 μM",MDR1,9.2 ×10⁻⁶ cm/s
same,"Papp B→A at 120 min, 5 μM",MDR1,32.1 ×10⁻⁶ cm/s
"C[C@]12CC[C@](C)(N1)[C@H](F)[C@H](Oc1ccc(-c3ccc(-n4cccn4)cc3O)nn1)C2 (single isomer, unassigned) [153-ENT1]",EC50,mHTT protein,51 to 100 nM
same,MDCK-MDR1: % Recov A-B,[1],67%
same,MDCK-MDR1: % Recov B-A,[1],76%
same,"efflux ratio at 120 min, 5 μM",MDR1,5
same,"Papp A→B at 120 min, 5 μM",MDR1,7.44 ×10⁻⁶ cm/s
same,"Papp B→A at 120 min, 5 μM",MDR1,34.4 ×10⁻⁶ cm/s
"Oc1cc(-c2cnn3ccccc23)ccc1-c1ccc(O[C@H]2C[C@@H]3CCC[C@@H](N3)[C@H]2F)nn1 (single isomer, unassigned) [91-ENT2]",EC50,mHTT protein,501 to 10000 nM
same,MDCK-MDR1: % Recov A-B,[1],30%
same,MDCK-MDR1: % Recov B-A,[1],48%
same,"efflux ratio at 120 min, 5 μM",MDR1,2
same,"Papp A→B at 120 min, 5 μM",MDR1,4.4 ×10⁻⁶ cm/s
same,"Papp B→A at 120 min, 5 μM",MDR1,10.5 ×10⁻⁶ cm/s
